The test system of data set [1] is Mycobacterium tuberculosis strain EH 4.0 (361.269). Kind of data set: Test 4: MIC determination, resazurin fluorescence, strain EH 4.0. It is filed as cell-based. Conditions: for IC50: Mycobacterium tuberculosis, read-out: pIC50, Test 4, M. tuberculosis strain EH 4.0 (361.269) (converted); for pIC50: Test 4, M. tuberculosis strain EH 4.0 (361.269). An excerpt: TEST 4 (See Also Test 1 Above; in this Test a Different Strain of Mycobacterium tuberculosis Strain is Employed)
Appropriate solutions of experimental and reference compounds were made in 96 well plates with 7H9 medium. Samples of Mycobacterium tuberculosis strain EH 4.0 (361.269) were taken from cultures in stationary growth phase. These were first diluted to obtain an optical density of 0.3 at 600 nm wavelength and then diluted 1/100, resulting in an inoculum of approximately 5×10 exp5 colony forming units per well. Plates were incubated at 37° C. in plastic bags to prevent evaporation. After 7 days, resazurin was added to all wells.
A general note: Alamar Blue is a resazurin reagent that responds to reducing activity.

As to `CCc1nc2sc(C)cn2c1C(=O)NCc1ccc(N2CC3(C2)CN(c2ccc(OC(F)(F)F)cc2)C3)cc1` [Compound 68], the melting point (commonly the temperature of the solid-liquid transition) was found to be 180.57 °C. Besides, the IC50 in data set [1] is 0.0631 µM.

On to `CCc1nc2ccc(Cl)cn2c1C(=O)NCc1ccc(N2CCC3(C2)CN(c2ccc(OC(F)(F)F)cc2)C3)cc1` [Compound 75], for which the melting point worked out at 183.86 °C. In addition, the IC50 in data set [1] is 0.0158 µM.

In the case of `CCc1nc2ccc(Cl)cn2c1C(=O)NCc1ccc(N2CC3(CCN(c4ccc(OC(F)(F)F)cc4)C3)C2)cc1` [Compound 76], the melting point is 136.04 °C. The IC50 in data set [1] was 0.0251 µM.

Molecule `CCc1nc2n(c1C(=O)NCc1ccc(N3CC4(CC(c5ccc(OC(F)(F)F)cc5)C4)C3)cc1)CCCC2` [Compound 82] registered a melting point of 190.78 °C. Further, the IC50 in data set [1] was 0.0631 µM.

The molecule `CCc1nc2sc(C)cn2c1C(=O)NCc1ccc(N2CC3(CC(c4ccc(OC(F)(F)F)cc4)C3)C2)cc1` [Compound 83] displayed a melting point of 108.84 °C. For the same molecule, the IC50 in data set [1] is 0.1 µM.

Regarding `CCc1nc2ccc(Cl)cn2c1C(=O)NCc1ccc(N2CC3(CC(OC)C3)C2)cc1` [Compound 84], the melting point is 137.48 °C. Besides, the IC50 in data set [1] was 0.1 µM.

In the case of `CCc1nc2n(c1C(=O)NCc1ccc(N3CC4(CC(OC)C4)C3)cc1)CCCC2` [Compound 85], the melting point stood at 147.41 °C. In data set [1], the IC50 was 1 µM.

For the molecule `CCc1nc2ncc(Cl)cn2c1C(=O)NCc1ccc(N2CC3(CC(OC)C3)C2)cc1` [Compound 86], the melting point came to 127.22 °C. In addition, the IC50 in data set [1] is 0.158 µM.

Consider `CCc1nc2ccc(Cl)cn2c1C(=O)NCc1ccc(N2CC3(CC(c4ccc(OC)c(F)c4)C3)C2)cc1` [Compound 87], for which the melting point worked out at 190.35 °C. In addition, the IC50 in data set [1] was 0.251 µM.

For the molecule `CCc1nc2ncc(Cl)cn2c1C(=O)NCc1ccc(N2CC3(CC(c4ccc(OC)c(F)c4)C3)C2)cc1` [Compound 88], the melting point amounted to 156.54 °C. Further, the IC50 in data set [1] was 0.251 µM.

In turn, `CCc1nc2ccc(Cl)cn2c1C(=O)NCc1ccc(N2CC3(CC(c4ccncc4)C3)C2)cc1` [Compound 89] had a melting point of 192.86 °C. The IC50 in data set [1] is 6.31 µM.

On to `CCc1nc2ccc(Cl)cn2c1C(=O)NCc1ccc(N2CC3(CN(C(C)=O)C3)C2)cc1` [Compound 90], for which the melting point worked out at 237.63 °C. Besides, the IC50 in data set [1] was 12.6 µM.

Consider `CCc1nc2ccc(Cl)cn2c1C(=O)NCc1ccc(N2CC3(CN(C(=O)c4ccccc4)C3)C2)cc1` [Compound 91], for which the melting point came to 204.21 °C. For the same molecule, the IC50 in data set [1] was 10 µM.

Molecule `CCc1nc2ccc(Cl)cn2c1C(=O)NCc1ccc(C2CC3(C2)CN(C(=O)C(F)(F)F)C3)cc1` [Compound 92] came in with a melting point of 80.75 °C. For the same molecule, the IC50 in data set [1] is 0.251 µM.

For the molecule `CCc1nc2ccc(Cl)cn2c1C(=O)NCc1ccc(N2CC3(C2)CC2(C3)OCCCO2)cc1` [Compound 95], the melting point was determined as 154.23 °C. Moreover, the IC50 in data set [1] was 0.158 µM.

`CCc1nc2ccc(Cl)cn2c1C(=O)NCc1ccc(N2CC3(CC(=O)C3)C2)cc1` [Compound 96]: the melting point was determined as 182.82 °C. In data set [1], the IC50 is 0.126 µM.

As for `CCc1nc2ccc(Cl)cn2c1C(=O)NCc1ccc(N2CC3(CC(OC(F)(F)F)C3)C2)cc1` [Compound 117], the melting point is 167.85 °C. In addition, the IC50 in data set [1] was 0.02 µM.

In the case of `Cc1nc2sc(F)cn2c1C(=O)NCc1ccc(N2CC3(CC(=O)C3)C2)cc1` [Compound 118], the melting point came to 201.34 °C. The IC50 in data set [1] is 12.6 µM.

For `CCc1nc2ccc(Cl)cn2c1C(=O)NCc1ccc(C2CC3(C2)CN(c2cccnc2)C3)cc1` [Compound 119], the melting point was 147.85 °C. Moreover, the IC50 in data set [1] is 0.631 µM.

`CCc1nc2ccc(Cl)cn2c1C(=O)NCc1ccc(N2CC3(CC(c4ccccn4)C3)C2)cc1` [Compound 120] had a melting point of 139.57 °C. The IC50 in data set [1] was 10 µM.

As for `CCc1nc2ncc(Cl)cn2c1C(=O)NCc1ccc(N2CC3(C2)CN(c2cccnc2)C3)cc1` [Compound 121], the melting point was 241.08 °C. In data set [1], the IC50 is 2.51 µM.

`CCc1nc2ncc(Cl)cn2c1C(=O)NCc1ccc(C2CC3(C2)CN(c2cccnc2)C3)cc1` [Compound 122] registered a melting point of 161.23 °C. Moreover, in data set [1], the IC50 is 0.794 µM.

With `CCc1nc2ccc(Cl)cn2c1C(=O)NCc1ccc(N2CC3(CC(n4cncn4)C3)C2)cc1` [Compound 123], the melting point is 166.63 °C. In addition, the IC50 in data set [1] is 1.58 µM.

On to `CCc1nc2ccc(Cl)cn2c1C(=O)NCc1ccc(N2CC3(CC(c4nccs4)C3)C2)cc1` [Compound 124], for which the melting point stood at 135.97 °C. Moreover, in data set [1], the IC50 is 0.0794 µM and the pIC50 (as a rule, the negative decadic logarithm of the IC50, by convention in mol/L) was found to be 7.2.

`CCc1nc2ccc(Cl)cn2c1C(=O)NCc1ccc(N2CCC3(CC2)CC(F)(F)C3)cc1` [Compound 125] yielded a melting point of 146.77 °C. Further, the IC50 in data set [1] was 0.002 µM.

For the molecule `CCc1nc2ncc(Cl)cn2c1C(=O)NCc1ccc(N2CC3(CC(=O)C3)C2)cc1` [Compound 126], the melting point turned out to be 187.49 °C. In addition, in data set [1], the IC50 was 10 µM and the pIC50 was found to be 4.9.

In turn, `Cc1nn2ccccc2c1C(=O)NCc1ccc(C2CC3(C2)CN(c2ccccc2)C3)cc1` [Compound 127] displayed a melting point of 201.15 °C. Besides, in data set [1], the IC50 is 0.126 µM and the pIC50 was 7.0.

On to `CCc1nc2ncc(Cl)cn2c1C(=O)NCc1ccc(C2CC3(C2)CN(C(=O)C(F)(F)F)C3)cc1` [Compound 128], for which the melting point was found to be 160.59 °C. In addition, the IC50 in data set [1] was 0.0316 µM.

For the molecule `Cc1nc2sc(Cl)cn2c1C(=O)NCc1ccc(N2CC3(CC(=O)C3)C2)cc1` [Compound 129], the melting point worked out at 188.46 °C. In data set [1], the IC50 was 0.398 µM and the pIC50 is 6.5.

Molecule `CCc1nc2n(c1C(=O)NCc1ccc(N3CC4(CC(OC(F)(F)F)C4)C3)cc1)CCCC2` [Compound 130] displayed a melting point of 169.56 °C. In addition, the IC50 in data set [1] was 0.0158 µM.

On to `CCc1nc2ncc(Cl)cn2c1C(=O)NCc1ccc(N2CC3(CC(OC(F)(F)F)C3)C2)cc1` [Compound 131], for which the melting point is 172.76 °C. In addition, the IC50 in data set [1] was 0.00501 µM.

`CCc1nc2ccc(Cl)cn2c1C(=O)NCc1ccc(C2CC3(C2)CN(c2cnccn2)C3)cc1` [Compound 132] gave a melting point of 149.46 °C. For the same molecule, in data set [1], the IC50 is 7.94 µM.

`CCc1nc2ncc(Cl)cn2c1C(=O)NCc1ccc(N2CCC3(CC2)CC(F)(F)C3)cc1` [Compound 133] came in with a melting point of 84.29 °C. Further, the IC50 in data set [1] is 0.002 µM.

On to `CCc1nc2ncc(Cl)cn2c1C(=O)NCc1ccc(C2CC3(C2)CN(c2cncnc2)C3)cc1` [Compound 134], for which the melting point was determined as 188.07 °C. For the same molecule, the IC50 in data set [1] is 0.00631 µM.

`CCc1nn2ccccc2c1C(=O)NCc1ccc(C2CC3(C2)CN(c2ccc(OC(F)(F)F)cc2)C3)cc1` [Compound 138] yielded a melting point of 105.98 °C. Besides, the IC50 in data set [1] was 0.0398 µM.

`CCc1nn2c(c1C(=O)NCc1ccc(C3CC4(C3)CN(c3ccc(OC(F)(F)F)cc3)C4)cc1)CCCC2` [Compound 139] gave a melting point of 135.21 °C. The IC50 in data set [1] is 7.94 µM.

Take `Cc1nn2ccccc2c1C(=O)NCC1CC2(CCN(c3ccc(OC(F)(F)F)cc3)CC2)C1` [Compound 140]: the melting point was 121.52 °C. For the same molecule, in data set [1], the IC50 was 1.58 µM.

On to `Cc1nn2ccccc2c1C(=O)NCc1ccc(C2CC3(C2)CN(c2ccc(OC(F)(F)F)cc2)C3)cc1` [Compound 141], for which the melting point was 158.48 °C. Besides, the IC50 in data set [1] is 0.0316 µM.

Molecule `Cc1nn2ccccc2c1C(=O)NCc1ccc(N2CC3(C2)CN(c2ccc(OC(F)(F)F)cc2)C3)cc1` [Compound 142] showed a melting point of 193.19 °C. Besides, in data set [1], the IC50 is 0.126 µM.

Regarding `Cc1nn2ccccc2c1C(=O)NCc1ccc(N2CC3(CN(F)C3)C2)cc1` [Compound 143], the melting point came out at 130.31 °C. Further, the IC50 in data set [1] is 0.398 µM.

Molecule `CCc1nn2ccccc2c1C(=O)NCc1ccc(N2CC3(C2)CN(c2ccc(OC(F)(F)F)cc2)C3)cc1` [Compound 144] came in with a melting point of 135.8 °C. In addition, the IC50 in data set [1] is 0.0794 µM.

On to `CCc1nn2c(Cl)cccc2c1C(=O)NCc1ccc(C2CC3(C2)CN(c2ccc(OC(F)(F)F)cc2)C3)cc1` [Compound 146], for which the melting point amounted to 119.23 °C. Moreover, in data set [1], the IC50 is 0.316 µM.

`CCc1nn2c(OC)cccc2c1C(=O)NCc1ccc(C2CC3(C2)CN(c2ccc(OC(F)(F)F)cc2)C3)cc1` [Compound 147] yielded a melting point of 151.74 °C. In addition, in data set [1], the IC50 is 1.26 µM.

`CCc1nc2ncc(Cl)cn2c1C(=O)NCc1ccc(N2CC3(C2)CC(F)(F)C3)cc1` [Compound 148] displayed a melting point of 158.14 °C. The IC50 in data set [1] is 0.0158 µM.

`CCc1nc2ncc(Cl)cn2c1C(=O)NCc1ccc(N2CC3(CC(Oc4ccc(F)cc4)C3)C2)cc1` [Compound 152] came in with a melting point of 350 °C. Further, in data set [1], the IC50 was 0.0158 µM.

In the case of `CCc1nc2ncc(Cl)cn2c1C(=O)NCc1ccc(N2CCC3(CC2)CC(OC(F)(F)F)C3)cc1` [Compound 153], the melting point was 150.61 °C. Also, the IC50 in data set [1] was 0.002 µM.

In turn, `CCc1nc2c(F)cccn2c1C(=O)NCc1ccc(C2CC3(C2)CN(c2ccc(OC(F)(F)F)cc2)C3)cc1` [Compound 157] gave a melting point of 144.55 °C. Moreover, in data set [1], the IC50 is 7.94 µM.

Source of the values: patent publication US20190330189A1, “ANTIBACTERIAL COMPOUNDS” (Janssen Sciences Ireland UC, priority 2015, published 2019).
